{"source": "paper PMC8962522", "about": "“Direct interaction of TrkA/CD44v3 is essential for NGF-promoted aggressiveness of breast cancer cells” (Journal of Experimental & Clinical Cancer Research : CR, 2022)", "test_system": "MDA-MB-231 cells", "assay": "Clonogenicity assay, MDA-MB-231", "type": "cell-based", "conditions": "peptide 50 ng/mL, 2% FBS; versus control cells or scramble peptide; siCD44v3: 10 days after siRNA transfection", "description": "The clonogenicity assay was performed to assess cell survival. MDA-MB-231 cells (250 cells/mL) were seeded into 6 plate wells (2% FBS medium; 2 mL/well). When the cells attached (within 3 h), they were treated with the peptide (scramble or P4; 50 ng/mL) or no peptide (control) and incubated for 24 h. The next day, a second-round treatment was performed. Three days later, the medium was changed, and the cells were incubated for another 5 days. After 10 days of culture, the medium was removed, and the cells were washed twice (PBS 1×), fixed (4% PAF for 30 min at RT), colored (violet crystal 2%; 30 min; RT) and washed twice (distilled water). Representative pictures of one well were taken, and the colonies were counted.\nTherefore, in this study, we assessed TrkA binding to CD44v3 in MDA-MB-231 cells, which were used as TNBC model cells. […] Therefore, we evaluated the physiological consequences of TrkA/CD44v3 complex dissociation induced by CD44v3 mimetic peptide 4 on MDA-MB-231 cell phenotypes (Fig. 4). […] We first determined the effect of CD44v3 on the length-to-width (l/w) ratio of the cells (elongation factor) (Fig. 4C-E). […]\nFig. 4 CD44v3 mimetic peptide 4 inhibits MDA-MB-231 breast cancer cell growth and migration/invasion. Clonogenic MDA-MB-231 cell growth was measured after 10 days in the presence of a scramble peptide (SP) or CD44v3 mimetic peptide (P4) (A, B). […]", "data": [{"sequence": "IDDDEDFISST [Peptide 4, mimetic peptide 4 (…) corresponding to the C-terminal region of CD44v3]", "values": [{"measurement": "effect on clonogenic growth of MDA-MB-231 cells", "value": "reduced the proportion of MDA-MB-231 colony forming units by two-thirds"}]}]}
